Test results as given in publication PMC3961306, “Comparison of the Cancer Gene Targeting and Biochemical Selectivities of All Targeted Kinase Inhibitors Approved for Clinical Use” (PLoS ONE, 2014).
pIC50: −log10 of the molar value. Like-named read-outs stand apart in the source and are kept apart here.

Key:
[1] = target: panel of more than 300 wild-type and mutant kinases (313 kinase panel) (Homo sapiens, UniProt P22612); assay: Kinase profiling in a biochemical assay panel (mobility shift assays and ELISA), %-inhibition at 1 μM; selectivity entropy; conditions: kinase PKACγ; 1 μM
[2] = target: panel of more than 300 wild-type and mutant kinases (313 kinase panel) (Homo sapiens, UniProt P15056); assay: as above; conditions: kinase BRAF; 1 μM compound
[3] = target: panel of more than 300 wild-type and mutant kinases (313 kinase panel) (Homo sapiens, UniProt P07947, T348I); assay: as above; conditions: kinase YES(T348I); compound at 1 μM
[4] = target: panel of more than 300 wild-type and mutant kinases (313 kinase panel) (Homo sapiens, UniProt P00533, L858R/T790M); assay: as above; conditions: kinase EGFR(T790M/L858R); compound at 1 μM
[5] = target: panel of more than 300 wild-type and mutant kinases (313 kinase panel) (Homo sapiens, UniProt P35968); assay: as above; conditions: kinase KDR; compound at 1 μM
[6] = target: panel of more than 300 wild-type and mutant kinases (313 kinase panel) (Homo sapiens, UniProt Q9UM73, R1275Q); assay: as above; conditions: kinase ALK(R1275Q); 1 μM compound
[7] = target: panel of more than 300 wild-type and mutant kinases (313 kinase panel) (Homo sapiens, UniProt P15056, V600E); assay: as above; conditions: kinase BRAF(V600E); 1 μM compound
[8] = target: panel of more than 300 wild-type and mutant kinases (313 kinase panel) (Homo sapiens, UniProt P09619); assay: as above; conditions: kinase PDGFRβ; 1 μM
[9] = target: panel of more than 300 wild-type and mutant kinases (313 kinase panel) (Homo sapiens, UniProt P11362, V561M); assay: as above; conditions: kinase FGFR1(V561M); compound at 1 μM
[10] = tested on: forty-four human cancer cell lines; assay: Cell proliferation assay (ATPlite, 72 hours) in the 44 cell line Oncolines panel; format: cell-based; conditions: Homo sapiens
[11] = A204, cell line A-204, read-out: cell panel IC50, A-204
[12] = A-375, cell line A375, read-out: cell panel IC50, A375
[13] = SHP77, cell line SHP-77, read-out: cell panel IC50, SHP-77
[14] = SW-620, cell line SW620, read-out: cell panel IC50, SW620
[15] = U2OS, cell line U-2 OS, read-out: cell panel IC50, U-2 OS
[16] = cell line J82, read-out: cell panel IC50, J82
[17] = cell line PA-1, read-out: cell panel IC50, PA-1
[18] = cell line SJCRH30, read-out: cell panel IC50, SJCRH30
[19] = cell line SR, read-out: cell panel IC50, SR
[20] = U-87 MG cell line, ATPlite, 72 hours, read-out: IC50 in cell proliferation assay (table S5 cellpanel data)

CO[C@H]1C[C@@H]2CC[C@@H](C)[C@@](O)(O2)C(=O)C(=O)N2CCCC[C@H]2C(=O)O[C@H]([C@H](C)C[C@@H]2CC[C@@H](OCCO)[C@H](OC)C2)CC(=O)[C@H](C)/C=C(\C)[C@@H](O)[C@@H](OC)C(=O)[C@H](C)C[C@H](C)/C=C/C=C/C=C/1C [everolimus]
%-inhibition of PKACγ [1]: -7.41% | %-inhibition, BRAF [2]: -6.54% | %-inhibition of YES(T348I) [3]: -0.414% | %-inhibition of EGFR(T790M/L858R) [4]: -5% | %-inhibition of KDR [5]: -6.38% | %-inhibition, ALK(R1275Q) [6]: -4.29% | %-inhibition, BRAF(V600E) [7]: 2% | %-inhibition of PDGFRβ [8]: -3.52% | %-inhibition of FGFR1(V561M) [9]: -12% | pIC50 ([10]; 769-P, cell line 769-P, read-out: cell panel IC50, 769-P): 6.43 | pIC50 ([10]; 786-0, cell line 786-0, read-out: cell panel IC50, 786-0): 6.69 | pIC50 ([10]; A 172, read-out: cell panel IC50, A-172, cell line A-172): 7.30 | pIC50 [10, 11]: 4.92 | pIC50 ([10]; A498, read-out: cell panel IC50, A-498, cell line A-498): 5.91 | pIC50 ([10]; A549, read-out: cell panel IC50, A-549, cell line A-549): 6.14 | pIC50 [10, 12]: 4.73 | pIC50 ([10]; A-427, read-out: cell panel IC50, A-427, cell line A-427): 7.03 | pIC50 ([10]; ACHN, cell line ACHN, read-out: cell panel IC50, ACHN): 4.82 | pIC50 ([10]; AN3-CA, cell line AN3 CA, read-out: cell panel IC50, AN3 CA): 6.98 | pIC50 ([10]; AU565, read-out: cell panel IC50, AU-565, cell line AU-565): 4.56 | pIC50 ([10]; BT-20, cell line BT-20, read-out: cell panel IC50, BT-20): 8.15 | pIC50 ([10]; BT-549, read-out: cell panel IC50, BT-549, cell line BT-549): 7.24 | pIC50 ([10]; BXPC-3, cell line BxPC-3, read-out: cell panel IC50, BxPC-3): < 4.50 | pIC50 ([10]; C-33-A, cell line C-33 A, read-out: cell panel IC50, C-33 A): 7.70 | pIC50 ([10]; CAL-27, cell line CAL 27, read-out: cell panel IC50, CAL 27): 5.57 | pIC50 ([10]; CCRF-CEM, cell line CCRF-CEM, read-out: cell panel IC50, CCRF-CEM): 5.85 | pIC50 ([10]; DLD-1, cell line DLD-1, read-out: cell panel IC50, DLD-1): 6.31 | pIC50 ([10]; FaDu, cell line FaDu, read-out: cell panel IC50, FaDu): 5.93 | pIC50 ([10]; HCT-15, cell line HCT-15, read-out: cell panel IC50, HCT-15): 6.53 | pIC50 ([10]; HCT-116, read-out: cell panel IC50, HCT-116, cell line HCT-116): 4.72 | pIC50 ([10]; Hs-578T, cell line Hs 578T, read-out: cell panel IC50, Hs 578T): 7.31 | pIC50 ([10]; Jurkat E6.1, cell line Jurkat E6.1, read-out: cell panel IC50, Jurkat E6.1): 7.20 | pIC50 ([10]; K562, read-out: cell panel IC50, K-562, cell line K-562): < 4.50 | pIC50 ([10]; LS174T, read-out: cell panel IC50, LS 174T, cell line LS 174T): < 4.50 | pIC50 ([10]; LoVo, cell line LoVo, read-out: cell panel IC50, LoVo): < 4.50 | pIC50 ([10]; MG-63, cell line MG-63, read-out: cell panel IC50, MG-63): 6.34 | pIC50 ([10]; MOLT-4, cell line MOLT-4, read-out: cell panel IC50, MOLT-4): 6.82 | pIC50 ([10]; MeWo, cell line MeWo, read-out: cell panel IC50, MeWo): < 4.50 | pIC50 ([10]; NCI-H82, cell line NCI-H82, read-out: cell panel IC50, NCI-H82): 5.32 | pIC50 ([10]; NCI-H460, cell line NCI-H460, read-out: cell panel IC50, NCI-H460): 5.40 | pIC50 ([10]; OVCAR-3, cell line OVCAR-3, read-out: cell panel IC50, OVCAR-3): 6.33 | pIC50 ([10]; RPMI-7951, cell line RPMI-7951, read-out: cell panel IC50, RPMI-7951): 8.92 | pIC50 [10, 13]: < 4.50 | pIC50 ([10]; SK-N-AS, cell line SK-N-AS, read-out: cell panel IC50, SK-N-AS): 6.52 | pIC50 ([10]; SW48, cell line SW48, read-out: cell panel IC50, SW48): 4.73 | pIC50 ([10]; SW480, cell line SW480, read-out: cell panel IC50, SW480): 4.83 | pIC50 [10, 14]: 4.78 | pIC50 [10, 15]: 5.37 | pIC50 [10, 16]: 6.36 | pIC50 [10, 17]: 5.48 | pIC50 [10, 18]: 4.55 | pIC50 [10, 19]: 6.96 | pIC50 [10, 20]: 6.19

CC(=O)Nc1cccc(-n2c(=O)n(C3CC3)c(=O)c3c(Nc4ccc(I)cc4F)n(C)c(=O)c(C)c32)c1 [trametinib]
%-inhibition of PKACγ [1]: 2% | %-inhibition, BRAF [2]: 78% | %-inhibition of YES(T348I) [3]: -2.82% | %-inhibition of EGFR(T790M/L858R) [4]: -6.51% | %-inhibition of KDR [5]: -0.549% | %-inhibition, ALK(R1275Q) [6]: -1.83% | %-inhibition, BRAF(V600E) [7]: 37% | %-inhibition of PDGFRβ [8]: 3.44% | %-inhibition of FGFR1(V561M) [9]: -3.3% | pIC50 ([10]; A 172, read-out: cell panel IC50, A-172): 6.96 | pIC50 [10, 11]: 6.20 | pIC50 ([10]; A498, read-out: cell panel IC50, A-498): 4.65 | pIC50 ([10]; A549, read-out: cell panel IC50, A-549): 7.24 | pIC50 [10, 12]: 7.89 | pIC50 ([10]; A-427, read-out: cell panel IC50, A-427): 7.77 | pIC50 ([10]; AU565, read-out: cell panel IC50, AU-565): 4.71 | pIC50 ([10]; BT-549, read-out: cell panel IC50, BT-549): 4.75 | pIC50 ([10]; HCT-116, read-out: cell panel IC50, HCT-116): 7.46 | pIC50 ([10]; K562, read-out: cell panel IC50, K-562): 7.43 | pIC50 ([10]; LS174T, read-out: cell panel IC50, LS 174T): 7.43 | pIC50 [10, 13]: < 4.50 | pIC50 [10, 14]: 8.87 | pIC50 [10, 15]: 6.51 | pIC50 [10, 16]: < 4.50 | pIC50 [10, 17]: 6.36 | pIC50 [10, 18]: 6.11 | pIC50 [10, 19]: 6.02 | pIC50 [10, 20]: 6.64 | pIC50 ([10]; cell line 769-P, read-out: cell panel IC50, 769-P): 7.07 | pIC50 ([10]; cell line 786-0, read-out: cell panel IC50, 786-0): 4.59 | pIC50 ([10]; cell line ACHN, read-out: cell panel IC50, ACHN): 6.30 | pIC50 ([10]; cell line AN3 CA, read-out: cell panel IC50, AN3 CA): 4.87 | pIC50 ([10]; cell line BT-20, read-out: cell panel IC50, BT-20): < 4.50 | pIC50 ([10]; cell line BxPC-3, read-out: cell panel IC50, BxPC-3): 7.54 | pIC50 ([10]; cell line C-33 A, read-out: cell panel IC50, C-33 A): 8.10 | pIC50 ([10]; cell line CAL 27, read-out: cell panel IC50, CAL 27): 7.24 | pIC50 ([10]; cell line CCRF-CEM, read-out: cell panel IC50, CCRF-CEM): 4.55 | pIC50 ([10]; cell line DLD-1, read-out: cell panel IC50, DLD-1): 6.31 | pIC50 ([10]; cell line FaDu, read-out: cell panel IC50, FaDu): 7.85 | pIC50 ([10]; cell line HCT-15, read-out: cell panel IC50, HCT-15): 5.69 | pIC50 ([10]; cell line Hs 578T, read-out: cell panel IC50, Hs 578T): 6.43 | pIC50 ([10]; cell line Jurkat E6.1, read-out: cell panel IC50, Jurkat E6.1): < 4.50 | pIC50 ([10]; cell line LoVo, read-out: cell panel IC50, LoVo): 8.10 | pIC50 ([10]; cell line MG-63, read-out: cell panel IC50, MG-63): 6.92 | pIC50 ([10]; cell line MOLT-4, read-out: cell panel IC50, MOLT-4): 4.71 | pIC50 ([10]; cell line MeWo, read-out: cell panel IC50, MeWo): 7.48 | pIC50 ([10]; cell line NCI-H82, read-out: cell panel IC50, NCI-H82): 4.61 | pIC50 ([10]; cell line NCI-H460, read-out: cell panel IC50, NCI-H460): 7.85 | pIC50 ([10]; cell line OVCAR-3, read-out: cell panel IC50, OVCAR-3): < 4.50 | pIC50 ([10]; cell line RPMI-7951, read-out: cell panel IC50, RPMI-7951): 8.00 | pIC50 ([10]; cell line SK-N-AS, read-out: cell panel IC50, SK-N-AS): 8.02 | pIC50 ([10]; cell line SW48, read-out: cell panel IC50, SW48): 8.92 | pIC50 ([10]; cell line SW480, read-out: cell panel IC50, SW480): 6.24
